Data from patent JPH1029937A, “メフェナム酸水溶液製剤” (KOBAYASHI SEIYAKU KOGYO KK, priority 1996, dated 1997).

Key:
[1] = Solubility of mefenamic acid in water and various aqueous solutions; assay type: physicochemical; settings: for solubility: aqueous solution containing polyvinylpyrrolidone and basic substance
[2] = in words, background statement; cited from earlier work

solubility [1]: 高い溶解性を示し
solubility ([1]; with nonionic surfactant of HLB 14-15 added): 溶解性が飛躍的に向上する
solubility and stability ([1]; aqueous solution of polyvinylpyrrolidone and surfactant mixture, approximately pH 7.0-8.0): 良好な溶解性と安定性を示す
Structure (SMILES): Cc1cccc(Nc2ccccc2C(=O)O)c1C [メフェナム酸, N−2,3−キシリルアントラニル酸]
solubility in water [2]: 水に極めて溶けにくく
